Assay results taken from patent US8338414B2, “Immunosuppressive agent and anti-tumor agent comprising heterocyclic compound as active ingredient” (Zenyaku Kogyo KabushikiKaisha, priority 2005, dated 2012).
Like-named read-outs stand apart in the source and are kept apart here.

Columns and labels:
[1] = test system: fulminant hepatitis; test: Fulminant hepatitis model (galactosamine and LPS); format: in vivo, mouse; settings: BALB/c mice, galactosamine 800 mg/kg and LPS 110 μg/kg i.p.
Procedure: BALB/c male mice (7 weeks old, purchased from Charles River Laboratories Japan Inc.) were used in the experiment. After having orally administered the test substances suspended in 5% HPC, galactosamine (800 mg/kg) and LPS (110 μg/kg) were intraperitoneally administered. Then, survival rates at 72 hours after administration were obtained.

[2] = Toxicologic test for single oral administration; settings: Sprague-Dawley (SD), rat, in vivo; SD male rats, single oral dose
[3] = test system: THP-1 cells; test: Proliferation inhibitory activity on hematologic neoplasm cells, THP-1; format: cell-based; settings: Homo sapiens, THP-1, 72 h; 3 days, Alamar Blue
[4] = test system: HL 60 cells; test: Proliferation inhibitory activity on hematologic neoplasm cells, HL60; format: cell-based; settings: Homo sapiens, HL-60, 72 h; 3 days, Alamar Blue
[5] = test system: Jurkat cells; test: Proliferation inhibitory activity on hematologic neoplasm cells, Jurkat; format: cell-based; settings: Homo sapiens, Jurkat, 72 h; 3 days, Alamar Blue
[6] = test system: allogeneic mixed lymphocyte reaction; test: Allogeneic mixed lymphocyte reaction; format: cell-based, mouse; settings: Mus musculus, Lymphocyte; C57BL/6N spleen stimulator cells, BALB/c lymph node responder cells, 86 hours, BrdU
How it was run: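 Stimulators were C57BL/6N female spleen cells and responders BALB/c female peripheral lymph node mononuclear cells (mice 8-10 weeks old). Cells suspended at 2×10^6 cells/mL in RPMI 1640 with 10% FBS and antibiotics.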

[7] = test system: human peripheral blood mononuclear cells; test: Activation inhibition assay for human peripheral blood mononuclear cells (CD40L, CD69 expression); format: cell-based; settings: PBMC, anti-CD3 + anti-CD28, 6 hours, flow cytometry
Procedure: In accordance with the method of Assay Example 2, PBMC (2×10^6 cells/mL) was isolated from human peripheral blood, suspended in RPMI 1640 medium (containing 10% fetal bovine serum, 10 mM HEPES, 1 mM pyruvic acid, and 4.5 g/L glucose), and seeded in wells of a 96 well plate at 0.225 mL per well. The test substances were added to respective wells, and then an anti-CD3 antibody (2 μg/mL) and an anti-CD28 antibody (1 μg/mL) were added. Then, after incubation under conditions of carbon dioxide 5% at a temperature 37° C. for 6 hours, the expressions of CD40L and CD69, activation markers, were analysed by flow cytometry. As a result, when the cells were stimulated by both an anti-CD3 antibody and an anti-CD28 antibody, CD40L was expressed on 14.4% of PBMC, which was also CD4 positive. However, the proportion of the cells which expressed CD40L decreased when the cells had been treated with test substances (Compound 4: 4.9%; Compound 20: 3.7%, Compound 24: 3.6%).

[8] = test system: Daudi cells; test: Proliferation inhibitory activity on hematologic neoplasm cells, Daudi; format: cell-based; settings: Homo sapiens, Daudi, 72 h; 3 days, Alamar Blue
[9] = test system: human peripheral blood mononuclear cells; test: Proliferation inhibition assay for human peripheral blood mononuclear cells; format: cell-based; settings: Homo sapiens, 72 h; PBMC, anti-CD3 and anti-CD28 antibody, 3 days, Alamar Blue
How it was run: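 PBMC from healthy donors (1×10^5 cells/mL) in RPMI 1640 with 10% FBS were stimulated with plate-bound anti-CD3 plus anti-CD28 (1 μg/mL). Serially diluted compounds were added and cells were cultured 3 days at 37 °C. Alamar Blue was then added for 1 day and fluorescence was read at ex 530/em 590 nm.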

[10] = test system: mouse spleen cells; test: Proliferation inhibition assay for mouse spleen cells; format: cell-based; settings: 72 h, 3 days, Alamar Blue
How it was run: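 C57BL/6N female mouse spleen cells (2×10^6 cells/mL) stimulated with Con A (3 μg/mL), LPS (100 μg/mL) or anti-mouse IgM (100 μg/mL) alongside serially diluted compounds, 3 days at 37° C, 5% CO2. Alamar Blue added for a further day; fluorescence read at ex 530/em 590 nm.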

[11] = test system: U 937 cells; test: Proliferation inhibitory activity on hematologic neoplasm cells, U937; format: cell-based; settings: Homo sapiens, U-937, 72 h; 3 days, Alamar Blue
[12] = test system: Salmonella typhimurium TA98, TA100, TA1535, TA1537 and Escherichia coli WP2uvrA; test: Ames test; format: cell-based; settings: preincubation method, with or without S-9, up to 5000 μg/flat plate
Procedure: Using 5 strains of Salmonella typhimurium TA98, TA100, TA1535, TA1537 and Escherichia coli WP2uvrA, the test substances (Compound 4, Compound 19, Compound 22 and Compound 24) were tested for their mutagenesis according to a preincubation method.

[13] = test system: Rabbit synoviocytes HIG-82; test: Inhibition assay for proliferation of rabbit synoviocyte; format: cell-based; settings: Oryctolagus cuniculus, 72 h; HIG-82, 3 days, Alamar Blue

In the case of `COc1cccc2c1nc(C(F)F)n2-c1nc(N2CCOCC2)cc(N2C[C@@H](C)O[C@@H](C)C2)n1` [Compound 24, 2-(2-Difluoromethyl-4-methoxybenzimidazol-1-yl)-4-(cis-2,6-dimethylmorpholino)-6-morpholinopyrimidine], the “Survival Rate after 72 Hours” value ([1]; 50 mg/kg oral) is reported as 33%, the “Survival Rate after 72 Hours” value ([1]; 100 mg/kg oral) is reported as 67% and the LD50 [2] is reported as 600 to 900 mg/kg. The IC50 [3] was 0.859 µM, the IC50 [4] was 0.823 µM and the IC50 [5] was 1.45 µM. For the same compound, the IC50 [6] was 0.286 µM, the “proportion of the cells which expressed CD40L” value ([7]; CD4 positive, 14.4% without test substance) was 3.6% and the “proportion of CD4-positive cells which expressed CD69” value ([7]; 28.8% without test substance) was 17.7%. For the same compound, the “proportion of CD4-negative cells which expressed CD69” value ([7]; 50.9% without test substance) was 22.4%, the IC50 [8] was 0.397 µM and the IC50 [9] was 0.471 µM. For the same compound, the IC50 ([10]; LPS 100 μg/mL, read-out: Inhibition of LPS response) was 0.1 to 10 µM, the IC50 ([10]; anti-mouse IgM antibody 100 μg/mL, read-out: Inhibition of Anti-IgM antibody response) was 0.1 to 10 µM and the IC50 ([10]; concanavalin A 3 μg/mL, read-out: Inhibition of Con A response) was 0.1 to 10 µM. For the same compound, the IC50 [11] was 2.79 µM, the “mutagenesis (colony number of reverse mutation)” value [12] was “negative” and the IC50 [13] was 0.441 µM.
